From patent publication US9757324B2, “Emu oil in combination with other active ingredients for treating skin imperfections” (priority 2011, dated 2017) come the findings set out here.

This data set is described as follows: Histological examination of skin after topical application. Format: in vivo, volunteers. As for the experimental part:
A study conducted with Emu Oil and doxycycline was undertaken in volunteers with mild to moderate acne. Sixteen volunteers participated who had mild to moderate acne, and one had severe cystic acne. Within 48 hours of application of the combination, the acne had disappeared. Only the volunteer with severe cystic acne had to apply the combination for five days for the acne to resolve. The efficacy was 100%. […] There are no tropical formulations of doxycycline to compare with. On histological examination, doxycycline was found in the dermis within 15 minutes of topical application.

In the case of `C[C@H]1c2cccc(O)c2C(=O)C2=C(O)[C@]3(O)C(=O)C(C(N)=O)=C(O)[C@@H](N(C)C)[C@@H]3[C@@H](O)[C@@H]21` [doxycycline], the “time after which doxycycline was found in the dermis” value is at most 15 min.
